# Measured values from patent publication US10906884B2, “Benzodiazepine derivatives as CCK2/gastrin receptor antagonists” (Trio Medicines Ltd, priority 2014, dated 2021).
# Experiments:
# CCK2 (human) [1] = target: T1, CCK2 (human) (Homo sapiens, UniProt P32239); conditions: cited from earlier work
# T1 sequence (P32239 1-447): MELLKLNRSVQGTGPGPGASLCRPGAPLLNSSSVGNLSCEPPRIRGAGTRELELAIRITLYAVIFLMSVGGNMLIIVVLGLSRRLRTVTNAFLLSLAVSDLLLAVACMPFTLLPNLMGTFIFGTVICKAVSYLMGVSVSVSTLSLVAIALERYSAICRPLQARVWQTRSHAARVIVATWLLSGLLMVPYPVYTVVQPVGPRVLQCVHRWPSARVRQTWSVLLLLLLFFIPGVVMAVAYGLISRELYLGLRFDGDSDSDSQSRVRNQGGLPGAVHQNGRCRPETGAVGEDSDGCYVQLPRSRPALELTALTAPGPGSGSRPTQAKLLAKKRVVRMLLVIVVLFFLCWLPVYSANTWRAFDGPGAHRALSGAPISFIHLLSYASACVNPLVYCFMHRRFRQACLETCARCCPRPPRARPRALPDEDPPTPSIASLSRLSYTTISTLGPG
# [2] = test system: gastrin-stimulated acid secretion; conditions: oral, healthy men; cited from earlier work
# panic attacks = conditions: patients; cited from earlier work
# [3] = cited from earlier work
# [4] = in vivo; cited from earlier work
# CCK1 (human) = target: T2, CCK1 (human) (Homo sapiens, UniProt P32238); assay: CCK1 receptor functional assay (antagonist effect, cAMP, HTRF); format: cell-based; conditions: stimulus CCK-8s 300 nM, 10 min 37° C., CHO cells
# T2 construct: expressed in transfected cells; host or cells: CHO cells
# T2 sequence (P32238 1-428): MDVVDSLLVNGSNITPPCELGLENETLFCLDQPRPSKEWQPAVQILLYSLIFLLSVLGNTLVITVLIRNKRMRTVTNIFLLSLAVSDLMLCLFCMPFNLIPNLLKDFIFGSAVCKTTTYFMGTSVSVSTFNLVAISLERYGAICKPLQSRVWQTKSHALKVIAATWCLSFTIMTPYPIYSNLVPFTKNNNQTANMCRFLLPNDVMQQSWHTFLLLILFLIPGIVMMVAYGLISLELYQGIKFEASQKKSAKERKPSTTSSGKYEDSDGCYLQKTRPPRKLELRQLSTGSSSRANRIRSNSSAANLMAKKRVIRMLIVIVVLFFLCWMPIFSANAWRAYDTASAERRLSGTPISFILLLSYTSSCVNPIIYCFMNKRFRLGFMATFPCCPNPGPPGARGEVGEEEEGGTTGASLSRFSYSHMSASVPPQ
# Text: (§1) (TR2) and (TR3) were compared with YF476 and YM022 in CCK1 and CCK2 receptor functional assays with the following assay criteria.
# (§2) The potency of the antagonists is expressed as IC50, the concentration of antagonist that causes a half-maximum inhibition of the control agonist response. The affinity of the antagonist for the receptor is expressed as KB, the concentration of antagonist, which would occupy 50% of the receptors at equilibrium.
# panel of 80 receptors = assay: Receptor binding screen, radiolabelled ligands, scintillation counting; conditions: other than CCK2 and CCK1
# Protocol: The potential of (TR2) and (TR3) to bind to other cellular and nuclear receptors was tested in a panel of 80 receptors. The assay used radiolabelled receptor ligands (agonist or antagonist, depending on the receptor), and the ability of the test compounds to inhibit ligand binding was measured by scintillation counting.
# [5] = test system: AGSGR cells (gastric adenocarcinoma cell line transfected with human gastrin/CCK2 receptor gene); assay: Sulphorhodamine-B (SRB) proliferation assay, G17-treated cells; format: cell-based; conditions: G17 10 nM
# Protocol: The potency of (TR2) and (TR3) was tested in a sulphorhodamine-B (SRB) proliferation assay in a human gastric adenocarcinoma cell line stably transfected with the human gastrin/CCK2 receptor gene (AGSGR). SRB is a fluorescent dye that binds to proteins, so cells with a high rate of protein synthesis (proliferative cells) will show high levels of fluorescence in the SRB assay. […] (TR2) and (TR3) were compared with the positive controls YF476 and YM022.
# [6] = test system: pentagastrin-stimulated gastric acid secretion; assay: Pentagastrin-stimulated gastric acid secretion in conscious rats with a chronic gastric fistula; format: in vivo; conditions: Rattus norvegicus, sc, read-out: ED50, inhibition of pentagastrin-stimulated gastric acid secretion
# Protocol: The effect of subcutaneous injections of YF476, (TR2) and (TR3) on pentagastrin-stimulated gastric acid secretion was tested in conscious rats with a chronic gastric fistula.
# [7] = Pharmacokinetics in healthy subjects, single oral dose, API in capsule; conditions: human, in vivo, po, 100 mg
# Protocol: In an initial study, healthy volunteers took a single oral dose of 100 mg (TR2) as an active pharmaceutical ingredient (API) in a capsule. Plasma concentrations were measured.
# In further clinical studies, healthy volunteers (n=8) took single oral doses of 5, 15, 50 and 100 mg (TR2) as an active pharmaceutical ingredient (API) in a capsule. (Capsule formulation TR2 powder (API) in a hard gelatin capsule, no excipients, no processing). Plasma concentrations were measured.
# Healthy volunteers (n=8) took single oral doses of 5, 15, 25 and 50 mg (TR2-A) as API in a capsule (TR2-A (crystalline) in hard gelatin capsule with no excipient, no processing of the API). Plasma concentrations of (TR2) and (TR2-A) were measured. The area under the curve of plasma concentrations of (TR2) after a single oral dose of 50 mg of (TR2-A) API (AUC0-24 h=212.5) was about the same as that observed for a similar formulation of a single oral dose of (TR2) 100 mg (AUC0-24 h=241.5).
# CCK2 (human) [8] = target: T1, CCK2 (human); assay: CCK2 receptor functional assay (antagonist effect, cAMP, HTRF); format: cell-based; set-up: expressed in transfected cells; host or cells: CHO cells; conditions: for IC50 / Kb: stimulus CCK-8s 10 nM, 10 min 37° C., CHO cells; for IC50: read-out: CCK2 IC50; for Kb: read-out: CCK2 KB
# Text: as §1, §2
structure (smiles),measurement,setting,value
"Cc1cccc(NC(=O)N[C@@H]2N=C(c3ccccc3)c3ccccc3N(C)C2=O)c1 [L-365,260]",Affinity at CCK2 receptors,CCK2 (human) [1],nanomolar
same,Selectivity versus the CCK1 receptor,CCK2 (human) [1],140 fold
same,Inhibition of gastrin-stimulated acid secretion,[2],only modest and short lasting inhibition
same,Limiting panic attacks,panic attacks,ineffective
same,Aqueous solubility,[3],low
same,Oral bioavailability,[4],poor
"CNc1cccc(NC(=O)N[C@@H]2N=C(c3ccccn3)c3ccccc3N(CC(=O)C(C)(C)CO)C2=O)c1 [TR2, (R)-1-[1-(4-Hydroxy-3,3-dimethyl-2-oxo-butyl)-2-oxo-5-pyridin-2-yl-2,3-dihydro-1H-benzo[e][1,4]diazepin-3-yl]-3-(3-methylamino-phenyl)-urea]",IC50,CCK1 (human),1 µM
same,Binding to other cellular and nuclear receptors (inhibition of ligand binding),panel of 80 receptors,No significant receptor binding
same,Inhibition of the anti-proliferative effects of G17,[5]; compound 100 nM,completely inhibited
same,ED50,[6],0.03 µmol/kg
same,AUC,[7],439 ng·h/mL
same,AUC(0-t),[7],242 ng·h/mL
same,Mean AUC0-24 h of plasma concentrations,[7],241.5 ng·h/mL
same,Selectivity IC50 (CCK1)/IC50 (CCK2),CCK2 (human) [8],400
same,Selectivity KB (CCK1)/KB (CCK2),CCK2 (human) [8],484
same,"Affinity for the CCK2 receptor, fold lower than that of YF476",CCK2 (human) [8]; relative to YF476,about 5 fold
same,"Selectivity for CCK2 over CCK1 receptor, higher than the selectivity of YF476",CCK2 (human) [8]; relative to YF476,30%
same,"Potency in CCK2 assay, fold less potent than YF476 and YM022",CCK2 (human) [8]; relative to YF476 and YM022,about 5 fold
same,Affinity for the CCK2 receptor relative to YM022,CCK2 (human) [8]; relative to YM022,twice that of YM022
same,IC50,CCK2 (human) [8],0.0025 µM
same,Kb,CCK2 (human) [8],0.00031 µM
CNc1cccc(NC(=O)N[C@H]2N=C(c3ccccn3)c3ccccc3N(CC(=O)C(C)(C)CO)C2=O)c1 [TR3],IC50,CCK1 (human),8.5 µM
same,Binding to other cellular and nuclear receptors (inhibition of ligand binding),panel of 80 receptors,No significant receptor binding
same,Inhibition of the anti-proliferative effects of G17,[5]; compound 500 nM,had the same effect
same,ED50,[6],0.3 µmol/kg
same,Selectivity IC50 (CCK1)/IC50 (CCK2),CCK2 (human) [8],86
same,Selectivity KB (CCK1)/KB (CCK2),CCK2 (human) [8],108
same,IC50,CCK2 (human) [8],0.099 µM
same,Kb,CCK2 (human) [8],0.012 µM
